From patent US20160123957A1, “Visualization of P-TEFb by Fluorescence Complementation” (The Regents of the University of California, priority 2014, published 2016)

Columns and labels:
[1] = system: P-TEFb; assay: BiFC assay, YC.P-TEFb coexpressed with YN.CTD in HEK293 cells; assay type: cell-based; conditions: for number of YFP-positive cells: versus normal culture conditions
Source text: Sequences encoding amino acids 1-154 (YN) and 155-238 (YC) of YFP were amplified and cloned in mammalian expression plasmids. The YN.CTD chimera was constructed by inserting DNA fragments from a 52X heptapeptide (52 X SEQ ID NO: 4 (SEQ ID NO: 7)) CTD coding plasmid with a linker sequence encoding a nuclear localization signal, SEQ ID NO: 5. The YC.PTEFb chimera was constructed by inserting DNA fragments corresponding to P-TEFb into the YC plasmid, with Cdk9 and CycT1 sequences genetically fused to express as a single chimeric polypeptide, that can form a functional P-TEFb molecule. A polynucleotide coding for the linker of SEQ ID NO: 6 was optionally utilized in the constructs, between P-TEFb or CTD sequences and their associated fluorophores fragments. All proteins contained an anti-c-Myc antibody epitope tag at the N termini, and their expression in cells was confirmed by Western blotting using an anti-c-Myc antibody.
(§1) HeLa or HEK293 cells growing in log phase were transfected with plasmid DNA encoding YN.CTD and YC.P-TEFb fusion proteins by use of a lipofection agent. Incorporation of YC.P-TEFb into the 7SK snRNP was confirmed by immunoprecipitation and Western blot analysis with antibodies to the components of the 7SK snRNP.
The BiFC assay was used to detect interactions between released free P-TEFb and its natural substrate, RNA polymerase II CTD. When YC.P-TEFb was coexpressed with YN.CTD in HEK293 cells under normal culture conditions, very few weakly YFP-positive cells were detected. […] Because the emission peak of YFP (527 nm) is similar to that of GFP (509 nm), the BiFC-positive cells appeared green. […] YC.P-TEFb was employed to monitor P-TEFb activation by BiFC in cells.
A time-dependent increase in BiFC signals was monitored by time-lapse fluorescence microscopic analysis. HEK293 cells expressing YC.P-TEFb and YN.CTD were treated with 5 micromolar SAHA, and fluorescent images were taken every 3 min. BiFC signals were detected by 30 min after the addition of SAHA and reached a peak at a time point between 75 and 90 min. At later times, more intense and punctate nuclear staining reflected the accumulation of active P-TEFb in nuclear speckles. This finding is consistent with previous observations of P-TEFb release by SAHA with a consideration of the time required for maturation of the fluorophore.

[2] = system: 7SK snRNP; assay: Immunoprecipitation and Western blot of 7SK snRNP fractions in cells expressing YC.P-TEFb; assay type: cell-based; conditions: HeLa or HEK293 cells, SAHA treatment
Source text: as §1

| SMILES | time at which BiFC signals were detected after addition ([1]; 5 micromolar, time-lapse fluorescence microscopy, images every 3 min) [min] | number of YFP-positive cells [1] | amounts of YC.P-TEFb and endogenous CycT1 proteins in 7SK snRNP fractions [2] | levels of free P-TEFb [2] | time-dependent increase in BiFC signals (P-TEFb release) ([1]; time-lapse fluorescence microscopy) |
| --- | --- | --- | --- | --- | --- |
| O=C(CCCCCCC(=O)Nc1ccccc1)NO [SAHA] | ≤ 30 | increased significantly | reduced | increased |  |
| Nc1ncn([C@@H]2O[C@H](CO)[C@@H](O)[C@H]2O)c(=O)n1 [AzaC] |  |  |  |  | released P-TEFb |
| CC(=O)NCCCCCCNC(C)=O [HMBA] |  | increased significantly |  |  |  |
| CN1CCc2c(c3ccccc3n2Cc2ccc(C(=O)NO)cc2)C1 [tubastatin A] |  | did not increase |  |  |  |
